Results reported in PubChem BioAssay (NCI).
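Interpolation was linear, between the two tested concentrations surrounding the appropriate level; five concentrations were tested over 48 hours in 96-well plates. GI50 marks 50% less growth. The concentration for full growth arrest is given as TGI.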

What was measured:
Assay in all cases: NCI-60 cell line screen, 48 h
786-0 renal = tested on: 786-0 renal
A498 renal = tested on: A498 renal
A549 NSCLC = tested on: A549 NSCLC
ACHN renal = tested on: ACHN renal
BT-549 breast = tested on: BT-549 breast
CAKI-1 renal = tested on: CAKI-1 renal
CCRF-CEM leukemia = tested on: CCRF-CEM leukemia
COLO 205 colon = tested on: COLO 205 colon
DU-145 prostate = tested on: DU-145 prostate
EKVX NSCLC = tested on: EKVX NSCLC
HCC-2998 colon = tested on: HCC-2998 colon
HCT-116 colon = tested on: HCT-116 colon
HCT-15 colon = tested on: HCT-15 colon
HL-60(TB) leukemia = tested on: HL-60(TB) leukemia
HOP-62 NSCLC = tested on: HOP-62 NSCLC
HOP-92 NSCLC = tested on: HOP-92 NSCLC
HS 578T breast = tested on: HS 578T breast
HT29 colon = tested on: HT29 colon
IGROV1 ovarian = tested on: IGROV1 ovarian
K-562 leukemia = tested on: K-562 leukemia
KM12 colon = tested on: KM12 colon
LOX IMVI melanoma = tested on: LOX IMVI melanoma
M14 melanoma = tested on: M14 melanoma
MALME-3M melanoma = tested on: MALME-3M melanoma
MCF7 breast = tested on: MCF7 breast
MDA-MB-231 breast = tested on: MDA-MB-231 breast
MDA-MB-435 = tested on: MDA-MB-435
MOLT-4 leukemia = tested on: MOLT-4 leukemia
NCI-H226 lung = tested on: NCI-H226 lung
NCI-H23 lung = tested on: NCI-H23 lung
NCI-H460 lung = tested on: NCI-H460 lung
NCI-H522 lung = tested on: NCI-H522 lung
NCI/ADR-RES ovarian = tested on: NCI/ADR-RES ovarian
OVCAR-3 ovarian = tested on: OVCAR-3 ovarian
OVCAR-4 ovarian = tested on: OVCAR-4 ovarian
OVCAR-5 ovarian = tested on: OVCAR-5 ovarian
OVCAR-8 ovarian = tested on: OVCAR-8 ovarian
PC-3 prostate = tested on: PC-3 prostate
RPMI-8226 leukemia = tested on: RPMI-8226 leukemia
RXF 393 renal = tested on: RXF 393 renal
SF-268 CNS = tested on: SF-268 CNS
SF-295 CNS = tested on: SF-295 CNS
SF-539 CNS = tested on: SF-539 CNS
SK-MEL-2 melanoma = tested on: SK-MEL-2 melanoma
SK-MEL-28 melanoma = tested on: SK-MEL-28 melanoma
SK-MEL-5 melanoma = tested on: SK-MEL-5 melanoma
SK-OV-3 ovarian = tested on: SK-OV-3 ovarian
SN12C renal = tested on: SN12C renal
SNB-19 CNS = tested on: SNB-19 CNS
SNB-75 CNS = tested on: SNB-75 CNS
SR leukemia = tested on: SR leukemia
SW-620 colon = tested on: SW-620 colon
T-47D breast = tested on: T-47D breast
TK-10 renal = tested on: TK-10 renal
U251 CNS = tested on: U251 CNS
UACC-62 melanoma = tested on: UACC-62 melanoma
UO-31 renal = tested on: UO-31 renal

For `Cc1cnc(NC2CCOCC2)nc1-n1cnc(C(=O)N[C@H](CN)c2cc(F)cc(Cl)c2)c1`, the GI50 (786-0 renal) was 1.49 µM, the TGI (786-0 renal) was 20 µM and the GI50 (A498 renal) was 0.0508 µM. For the same molecule, the TGI (A498 renal) was 0.462 µM, the GI50 (A549 NSCLC) was 0.216 µM and the TGI (A549 NSCLC) was 30.5 µM. The GI50 (ACHN renal) was 1.64 µM, the TGI (ACHN renal) was 28 µM and the GI50 (BT-549 breast) was 5.02 µM. For the same molecule, the TGI (BT-549 breast) was 17.2 µM, the GI50 (CAKI-1 renal) was 0.237 µM and the TGI (CAKI-1 renal) was 5.34 µM. The GI50 (CCRF-CEM leukemia) was 2.4 µM, the TGI (CCRF-CEM leukemia) was 24.5 µM and the GI50 (COLO 205 colon) was < 0.01 µM. It also gave a TGI (COLO 205 colon) of 14.2 µM, a GI50 (DU-145 prostate) of 2.34 µM and a TGI (DU-145 prostate) of 82.8 µM. The GI50 (EKVX NSCLC) was 0.427 µM, the TGI (EKVX NSCLC) was 20.2 µM and the GI50 (HCC-2998 colon) was 0.018 µM. It also gave a TGI (HCC-2998 colon) of 11.6 µM, a GI50 (HCT-116 colon) of 0.0177 µM and a TGI (HCT-116 colon) of 12.4 µM. For the same molecule, the GI50 (HCT-15 colon) was 3.06 µM, the TGI (HCT-15 colon) was 34.3 µM and the GI50 (HL-60(TB) leukemia) was 0.0196 µM. For the same molecule, the TGI (HL-60(TB) leukemia) was 1.83 µM, the GI50 (HOP-62 NSCLC) was 0.154 µM and the TGI (HOP-62 NSCLC) was 20.9 µM. For the same molecule, the GI50 (HOP-92 NSCLC) was 0.023 µM, the TGI (HOP-92 NSCLC) was 2.12 µM and the GI50 (HS 578T breast) was 0.871 µM. For the same molecule, the TGI (HS 578T breast) was 15.8 µM, the GI50 (HT29 colon) was 0.0128 µM and the TGI (HT29 colon) was > 35.4 µM. It also gave a GI50 (IGROV1 ovarian) of 0.0702 µM, a TGI (IGROV1 ovarian) of 13 µM and a GI50 (K-562 leukemia) of 0.783 µM. It also gave a TGI (K-562 leukemia) of 14.5 µM, a GI50 (KM12 colon) of 0.0814 µM and a TGI (KM12 colon) of 30.1 µM. For the same molecule, the GI50 (LOX IMVI melanoma) was 0.0441 µM, the TGI (LOX IMVI melanoma) was 5.88 µM and the GI50 (M14 melanoma) was 0.0193 µM. For the same molecule, the TGI (M14 melanoma) was 2.38 µM, the GI50 (MALME-3M melanoma) was < 0.01 µM and the TGI (MALME-3M melanoma) was 0.0157 µM. It also gave a GI50 (MCF7 breast) of 1.58 µM, a TGI (MCF7 breast) of 15.4 µM and a GI50 (MDA-MB-231 breast) of 0.0999 µM. For the same molecule, the TGI (MDA-MB-231 breast) was > 30.6 µM, the GI50 (MDA-MB-435) was 0.0638 µM and the TGI (MDA-MB-435) was 16.4 µM. The GI50 (MOLT-4 leukemia) was 1.59 µM, the TGI (MOLT-4 leukemia) was 9.79 µM and the GI50 (NCI-H226 lung) was 1.36 µM. The TGI (NCI-H226 lung) was 10.9 µM, the GI50 (NCI-H23 lung) was 0.0201 µM and the TGI (NCI-H23 lung) was 16.5 µM. It also gave a GI50 (NCI-H460 lung) of 1.05 µM, a TGI (NCI-H460 lung) of 17.9 µM and a GI50 (NCI-H522 lung) of 8.23 µM. The TGI (NCI-H522 lung) was 30.5 µM, the GI50 (NCI/ADR-RES ovarian) was 19.8 µM and the TGI (NCI/ADR-RES ovarian) was > 91.9 µM. For the same molecule, the GI50 (OVCAR-3 ovarian) was 1.94 µM, the TGI (OVCAR-3 ovarian) was 22.2 µM and the GI50 (OVCAR-4 ovarian) was 0.506 µM. For the same molecule, the TGI (OVCAR-4 ovarian) was 53.5 µM, the GI50 (OVCAR-5 ovarian) was 0.0269 µM and the TGI (OVCAR-5 ovarian) was > 82.8 µM. For the same molecule, the GI50 (OVCAR-8 ovarian) was 3.48 µM, the TGI (OVCAR-8 ovarian) was 42.6 µM and the GI50 (PC-3 prostate) was 4.36 µM. The TGI (PC-3 prostate) was 38.5 µM, the GI50 (RPMI-8226 leukemia) was 7.45 µM and the TGI (RPMI-8226 leukemia) was 30.4 µM. For the same molecule, the GI50 (RXF 393 renal) was 0.101 µM, the TGI (RXF 393 renal) was 2.42 µM and the GI50 (SF-268 CNS) was 1.86 µM. It also gave a TGI (SF-268 CNS) of 23.2 µM, a GI50 (SF-295 CNS) of 2.8 µM and a TGI (SF-295 CNS) of 17.3 µM. The GI50 (SF-539 CNS) was 2.93 µM, the TGI (SF-539 CNS) was 17.4 µM and the GI50 (SK-MEL-2 melanoma) was 0.0186 µM. It also gave a TGI (SK-MEL-2 melanoma) of 0.531 µM, a GI50 (SK-MEL-28 melanoma) of 0.0203 µM and a TGI (SK-MEL-28 melanoma) of 13.5 µM. For the same molecule, the GI50 (SK-MEL-5 melanoma) was 0.388 µM, the TGI (SK-MEL-5 melanoma) was 12.9 µM and the GI50 (SK-OV-3 ovarian) was 0.523 µM. For the same molecule, the TGI (SK-OV-3 ovarian) was 8.17 µM, the GI50 (SN12C renal) was 2.27 µM and the TGI (SN12C renal) was > 52.1 µM. The GI50 (SNB-19 CNS) was 13.9 µM, the TGI (SNB-19 CNS) was > 57.8 µM and the GI50 (SNB-75 CNS) was 0.103 µM. The TGI (SNB-75 CNS) was 8.84 µM, the GI50 (SR leukemia) was 1.14 µM and the TGI (SR leukemia) was 16.5 µM. The GI50 (SW-620 colon) was 0.0383 µM, the TGI (SW-620 colon) was 14.3 µM and the GI50 (T-47D breast) was 13.6 µM. The TGI (T-47D breast) was 46.6 µM, the GI50 (TK-10 renal) was 0.113 µM and the TGI (TK-10 renal) was 23 µM. It also gave a GI50 (U251 CNS) of 1.54 µM, a TGI (U251 CNS) of 22.9 µM and a GI50 (UACC-62 melanoma) of 0.0102 µM. For the same molecule, the TGI (UACC-62 melanoma) was 5.57 µM, the GI50 (UO-31 renal) was 0.903 µM and the TGI (UO-31 renal) was 5.43 µM.
